Reference: PubChem BioAssay (NCI)
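In this assay, cells in 96-well plates receive the compound at five concentrations for 48 hours. Endpoints are linearly interpolated between the surrounding concentrations. GI50 = concentration required for 50% inhibition of growth. At the TGI there is no net growth.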

What was measured:
Assay in all cases: NCI tumour cell line growth inhibition, 48 h
SF-295 CNS = system: SF-295 CNS
HCT-116 colon = system: HCT-116 colon
SF-268 CNS = system: SF-268 CNS
CCRF-CEM leukemia = system: CCRF-CEM leukemia
NCI-H522 lung = system: NCI-H522 lung
HOP-92 NSCLC = system: HOP-92 NSCLC
OVCAR-3 ovarian = system: OVCAR-3 ovarian
NCI-H460 lung = system: NCI-H460 lung
LOX IMVI melanoma = system: LOX IMVI melanoma
MCF7 breast = system: MCF7 breast

Compound	TGI (SF-295 CNS) [µM]	TGI (HCT-116 colon) [µM]	TGI (SF-268 CNS) [µM]	TGI (CCRF-CEM leukemia) [µM]	TGI (NCI-H522 lung) [µM]	TGI (HOP-92 NSCLC) [µM]	TGI (OVCAR-3 ovarian) [µM]	TGI (NCI-H460 lung) [µM]	TGI (LOX IMVI melanoma) [µM]	GI50 (SF-295 CNS) [µM]	GI50 (HCT-116 colon) [µM]	GI50 (SF-268 CNS) [µM]	GI50 (CCRF-CEM leukemia) [µM]	GI50 (NCI-H522 lung) [µM]	GI50 (OVCAR-3 ovarian) [µM]	GI50 (MCF7 breast) [µM]	TGI (MCF7 breast) [µM]	GI50 (NCI-H460 lung) [µM]	GI50 (LOX IMVI melanoma) [µM]	GI50 (HOP-92 NSCLC) [µM]
COc1ccc(CN2C(=O)C(Cc3cc(OC)c(OC)c(C)c3OC)N(C(=O)OC(C)C)C(=O)/C2=C/c2cc(OC)c(OC)c(C)c2OC)cc1 (configuration not stated)	> 100	> 100	> 100	> 100	> 100	> 100	> 100	> 100	> 100											
COc1ccc(S(=O)(=O)N2CCN(C(=O)OCc3ccccc3)CC2C(=O)NO)cc1 (configuration not stated)	> 25	> 25	> 25	> 25	> 25		> 25	> 25	4.6	> 25	> 25	> 25	6.2	5.16	12.1	13	> 25	> 25	1.28	
CN(C)CCCNC(=O)c1cc(NC(=O)CCNC(=O)c2ccc3c(c2)C(=O)c2ccccc2C3=O)cn1C	> 100	> 100	> 100	> 100	> 100	> 100	> 100	> 100		> 100	> 100	71	64.1	> 100	33.2	20.1	56.4	> 100		58.9
COc1cc(-c2cc(/C=C/C(=O)c3ccc4c(c3)OCO4)[nH]n2)cc(OC)c1OC			14.5	5.96	2.35		12.3	5.1	3.78			2.97	1.57	1.03	3.38			2.12	1.82	
CN(CCCCCl)P(=O)(OCc1ccc([N+](=O)[O-])o1)C(F)(F)c1ccc(CC(=O)N[C@@H](CC(=O)O)C(=O)N[C@@H](Cc2ccc(C(F)(F)P(=O)(OCc3ccc([N+](=O)[O-])o3)N(C)CCCCCl)cc2)C(N)=O)cc1 (some centres not stated)	> 100		> 100	> 100	> 100	52.3	> 100	> 100	> 100	> 100		42.9	30.2	35.7	37.6	32.8	> 100	> 100	28.2	22.5
COc1ccc(-c2cc(-c3ccc(O)cc3)nc3nc(=S)[nH]c(N)c23)cc1	61.6	31.3	79.2		27.8	36.4	45	36.9	30.3	20	15.4	23.4		8.5	16.4	12	35.6	15.9	12	5.15
O=C(O)CN(CC(=O)O)Cc1cc2c(cc1O)Oc1cc(O)c(CN(CC(=O)O)CC(=O)O)cc1C21OC(=O)c2ccccc21	> 100	> 100	> 100	> 100	> 100	> 100	> 100		> 100								> 100			
CCOC(=O)C1c2[nH]c3ccccc3c2CCN1C(=O)c1ccco1 (configuration not stated)	> 10	> 10	> 10	> 10		> 10	> 10										> 10			
O=c1oc2c3ccc4ccccc4c3n(CCN3CCOCC3)c2c2ccccc12	> 100	> 100	> 100	15.2	> 100	> 100	> 100	> 100	> 100											
COc1ccc2nc3cc(Cl)ccc3c(NCCC(=O)OCC(O)C(O)C(O[C@H](C)C(=O)NC(C)C(=O)NC(CCC(N)=O)C(=O)OCc3ccccc3)C(C=O)NC(C)=O)c2c1 (some centres not stated)	34.3	31.9	32.8	> 100	28	31.9	34.7	30.4												
O=C1OC(c2ccccc2)C2CC3CC4(CCC3CN12)OCCO4 (configuration not stated)	> 100	> 100	> 100	> 100	1.57	> 100	> 100	> 100	> 100											
COC(=O)CCC(=O)CC(=O)C(=O)Nc1ccc(F)cc1		> 100	> 100	> 100	> 100	> 100	> 100	> 100	> 100											
N#Cc1ccc(/C=N\N2C(=O)c3ccccc3C2=O)cc1	> 100	> 100	> 100	> 100		> 100	> 100	> 100	> 100											
Cc1ccccc1N=Cc1ccc(N(CCC#N)S(=O)(=O)c2ccccc2)cc1	> 100	> 100	> 100	> 100	> 100	> 100	> 100	> 100	> 100											
COc1c(OC(C)=O)c(OC(C)=O)cc2c1-c1ccc(OC)c(=O)cc1C(NC(C)=O)CC2 (configuration not stated)	0.564	0.942	54.4	> 100	0.0192		0.071	13.1	> 100								> 100			
O=C(CCc1nnc(-c2c(Cl)cccc2Cl)o1)c1nc2ccccc2[nH]1	42.9	13.5	46.6	66		15.8	24.8	28.6	39.8	5.98	3.33	7.29	4.86		5.63	4.57	> 100	4.99	4.03	1.77
COCC1C(=O)c2cc3c(cc2C12C=CC1(C=C2)OCCO1)OCO3 (configuration not stated)	27.9	6.77	16	4.38	3.96	29.6	26.5	31.9												
CCOc1cc(C=O)c2c(ccc3ccc(OC)c(OC)c32)c1OC	> 100	> 100	> 100	> 100	> 100	> 100	> 100	> 100	> 100											
CCOC(=O)NC(=O)c1cn(CCCCCOC(=O)NCCCCCCNC(=O)OCCCCCn2cc(C(=O)NC(=O)OCC)c(=O)[nH]c2=O)c(=O)[nH]c1=O	> 100	> 100	> 100	> 100	> 100		> 100	> 100	> 100											
